Test [1] addresses T1, high affinity rolipram binding sites (HARBS, PDE4H).
T1 construct: IC50 for displacement of [3H]-rolipram from HARBS; other: 300 μM, guinea pig, preliminary experimental data; other: guinea pig whole brain particulates; over 300 μM not available due
In words: Binding to particulate HARBS of whole brain, displacement of [3H]-rolipram (Assay II). On the set-up: species or system guinea pig. To be noted: for IC50: guinea pig whole brain particulates; for bound to HARBS of the whole brain cell particulates: 300 μM, guinea pig, preliminary experimental data. Here is the method:
The binding experiments are carried on basis of the methods of Schneider et al. and Zhao et al. with a small modification. Under a protocol approved by the Animal Care and Use Committee of Taipei Medical University, five male guinea pigs (Hartley), weighing 500-600 g, were anesthetized. The whole brains taken therefrom were homogenized with in 10 volumes of cold medium (pH 6.5) containing 20 mM Bis-Tris, 2 mM benzamidine, 2 mM EDTA, 50 mM sodium chloride, 0.1 mM phenylmethanesulfonyl fluoride (PMSF), and 1 mM dithiothreitol. At 4° C., the homogenate was centrifuged at 170 g for 15 min for removing blood vessels and connective tissues, and the supernatant thereof was then re-centrifuged at 40,000 g for 30 min for separating the particulates from the cytosol of cells.
After incubation, the reaction was stopped by transferring the reaction vessel to a bath of crashed ice. Then the reaction mixture was filtered through a punched glass fiber filter (Whatman GF/B) placed in a mini funnel, which was adopted to a 1.5 ml of Eppendorff's tube for collecting the filtrate in the mini centrifuge at 1000 rpm for 10 seconds. By the same way (centrifugation), it is further washed with 0.3 ml reaction buffer each for three times. The Whatman GF/B filter was mixed with 2 ml of cocktail and counted by the β-scintillation counter (Backman, Fullerton, Calif., USA) for counting the radioactivity thereof.

The next test has as its system T2, PDE4L (LARBS).
T2 construct: other: considered equal to the PDE4 IC50
In words: Binding to peripheral LARBS (PDE4L). Conditions: considered equal to the PDE4 IC50. The text has this: [21]. […] In the brain, there are two binding sites for rolipram, which are high (HARBS) and low affinity rolipram binding sites (LARBS), while in the periphery of bronchi and lung there exist only LARBS. Generally, the anti-inflammatory and the bronchodilatory effects of rolipram are considered as its ability to bind with LARBS [21].

Test [2] has as its system OVA-sensitized and challenged BALB/c mice, methacholine-induced Penh. In words: Airway hyperresponsiveness in vivo, Penh by whole-body plethysmography (Assay III). On the set-up: species or system mouse. Conditions: i.p., FIG. 3A. On the procedure: (§1) Sensitization, airway challenge, and allergen provocation was carried out as described by Kanehiro et al with some modifications. The female BALB/c mice from 8 to 12 week of age were obtained from National Laboratory Animal Center (Taiwan), and maintained on diets free of ovalbumin (OVA). Mice were sensitized by an intraperitoneal (i.p.) injection of 20 μg of OVA emulsified in 2.25 mg aluminum hydroxide gel in a total volume of 100 μl on days 0 and 14. For comparison, some mice were not sensitized, but received sham injection. All mice were challenged via the airway by OVA (1% in saline) for 30 min on days 28, 29, and 30 by ultrasonic nebulization. […] AHR was assessed on day 73 (48 h after 1% OVA provocation) for each group. […] The AHR was measured in unrestrained animals by barometric plethysmography using a whole-body plethysmograph (WBP) (Buxco, Troy, N.Y., USA). Mice were placed into the main chamber of the WBP and nebulized first with phosphate buffer solution (PBS), then with increasing doses (6.25-50 mg/ml) of methacholine (MCh) for 3 min for each nebulization, followed by readings of breathing parameters for 3 min after each nebulization with determination of enhanced pause (Penh) values. […] The number of inflammatory cells was counted using a hemacytometer (Hausser Sci., Horsham, Pa., USA). […]

The subject of test [3] is inflammatory cells in BALF of OVA-sensitized BALB/c mice. In words: Inflammatory cells in BALF of OVA-sensitized mice (Assay III). Format: in vivo, mouse. Conditions: FIG. 3B. On the procedure:
as §1

Test [4] relates to cytokines (IL-2, IL-4, IL-5, TNF-α, IFN-γ) in BALF of OVA-sensitized BALB/c mice. In words: Cytokines in BALF of OVA-sensitized mice (Assay III). It is filed as in vivo, mouse. Conditions: FIG. 3C. On the procedure:
as §1

Test [5] concerns OVA-induced contractions of sensitized guinea pig trachea. In words: Cumulative OVA-induced contractions of isolated sensitized trachea in vitro (Assay IV). Conditions: FIG. 4. From the text: The guinea pigs were ready for use after day 25 [20]. Under a protocol approved by the Animal Care and Use Committee of Taipei Medical University, the tracheae of guinea pigs (Hartley) were sacrificed and removed therefrom. The tracheae were carefully trimmed off the excessive surrounding tissues and cut into six segments. Each segment consisted of three cartilage rings. All segments were cut open opposite the trachealis. […] The composition of the normal Krebs solution was (mM): […] The tissues were suspended in normal Krebs solution under an initial tension of 1.5 g and allowed to equilibrate for at least 1 h with washing at 15-min intervals. After the tissues were precontracted with KCl (60 mM) and washed with normal Krebs solution, OVA (0.1-100 μg/ml) was cumulatively added, and contractions were allowed to reach a steady state at each concentration. […] The tension of precontraction induced by KCl before experiment was set as 100%.

The mark [6] stands for this setting: 2 nM [3H]-rolipram, FIG. 2, read-out: IC50 for displacement of [3H]-rolipram from HARBS.
Where [7] appears, read: over 300 μM not available due to solubility, read-out: concentration for having 50% of HARBS bound.

Where two headings read alike, the source gives them in different places.

As to `COc1cc(O)c2c(=O)c(-c3ccc(O)cc3)coc2c1` [Prunetin], the IC50 in test [1] (setting [6]) and in test [1] (setting [7]) was over 300 µM throughout. For the same compound, in test [1], the “bound to HARBS of the whole brain cell particulates” value worked out at 24.2%. For the same compound, the “concentration for binding to an half of the LARBS” value in the test with PDE4L (LARBS) was 61.9 µM.
`COc1ccc(C2CC(=O)c3c(O)cc(O)cc3O2)cc1O` (stereo not shown) [Hesperetin]: the IC50 in test [1] (setting [6]) and in test [1] (setting [7]) was over 300 µM each time. In addition, in test [1], the “bound to HARBS of the whole brain cell particulates” value was found to be 17.5%. In addition, in test [2] (3~30 μmol/kg), the “Penh values compared with non-sensitized mice” value is “not significantly different”. Besides, the “Penh values induced by 50 mg/ml MCh” value in test [2] (10 and 30 μmol/kg, sensitized mice) was “significantly suppressed”. In test [3] (3 μmol/kg i.p., compared with control group), the “enhancement of eosinophils in BALF” value was “significantly suppressed”. Also, the “enhancement of total inflammatory cells, macrophages, lymphocytes, neutrophils and eosinophils in BALF” value in test [3] (10 and 30 μmol/kg i.p.) is “significantly suppressed”. The “level of IL-5 in BALF” value in test [4] (3 and 10 μmol/kg i.p.) is given as “not suppressed”. In addition, in test [4] (3~30 μmol/kg, i.p.), the “enhancement of IL-2, IL-4, IL-5, TNF-α and IFN-γ levels in BALF” value is “significantly suppressed”. The “OVA (both 10 and 100 μg/ml)-induced contractions” value in test [5] (30 μM preincubated 15 min) is listed as “significantly antagonized”. For the same compound, the “OVA (100 μg/ml)-induced contractions” value in test [5] (3~30 μM preincubated 15 min, standardized by 60 mM KCl) was “antagonized”. Besides, the “concentration for binding to an half of the LARBS” value in the test with PDE4L (LARBS) came out at 28.2 µM.

Source of the values: patent US20060229358A1, “Pharmaceutical composition containing flavonoids” (Taipei Medical University, priority 2005, published 2006).
